Common to all, as to format: cell-based
The test system of assay [1] is A549 (DSMZ ACC 107) cells. Nature of the assay: cells. To be noted: growth inhibition, 5 days of incubation, MTT assay; read-out: IC50 [nM] A-549 (Gonadoliberin-Ratjadone Conjugates). As to the method:
(§1) 60 μL of serial dilutions of the test compound were given to 120 μL of suspended cells (50.000/mL) in wells of 96-well plates. After 5 days of incubation growth inhibition (IC50) was determined using an MTT assay.^[64]
On the technique in general: Tetrazolium dyes change colour on reduction, which living cells bring about.

Assay [2] addresses T1, CRM1 (Homo sapiens, UniProt O14980).
T1 construct: HeLa cells stably expressing a fluorescent translocation biosensor (HeLaRevBio); endogenous in cells; host or cells: HeLa (HeLaRevBio in A7; HeLa in A8)
In words: Monitoring export inhibitory activity (translocation biosensor, HeLaRevBio cells). On the procedure:
Export inhibitory ability of compounds was evaluated with the translocation biosensor system. This cellular assay depends on a recombinantly expressed fusion protein consisting of a nuclear localization signal (SV40-NLS), glutathione S-transferase (GST), green fluorescent protein (GFP) and a nuclear export signal (HIV1-RevNES). Due to the two transport signals (NLS/NES), the biosensor is permanently shuttling between nucleus and cytoplasm but resides prominently in the cytoplasm due to a comparatively stronger NES. Export inhibiting compound induce a nuclear accumulation of the GFP-signal^[65,66] Cell lines were maintained as recommended by the American Type Culture Collection in DMEM containing 5% glutamine (Thermo Fisher Scientific, Waltham, USA) supplemented with 10% FBS (Thermo Fisher Scientific, Waltham, USA). For quantifying the nuclear export inhibitory effect, HeLa cells stably expressing a fluorescent translocation biosensor (HeLaRevBio)^[67] were seeded into black 96 well μclear plates (Greiner, Germany). They next day compounds were added covering an appropriate concentration range. After 1h of incubation, cells were fixed in 4% PFA for 10 min and permeabilized with 0.1% Triton X 100 in PBS for 5 min. After washing with PBS nuclei were labeled with Hoechst H33342 (30 min 10 μg/ml). The intracellular distribution of the biosensor-dependent GFP signal was quantitatively evaluated with the high content imaging system ImageXpress MicroXLS (Molecular Devices, Sunnyvale, USA). By using the translocation enhanced application module (Molecular Devices, Sunnyvale, USA) the GFP-intensity was quantified in the cytoplasm and nuclear region. As final readout the difference of Mean Inner and Mean Outer Intensity was calculated. IC50s of nuclear export inhibition were calculated using Sigma Plot with four parameter logistics curve regression (Systat Software GmbH, Erkrath, Germany). […] The following day compounds were added at 125 nM final concentration.

The subject of assay [3] is SKOV-3 (DSMZ ATCC HTB 77) cells. In words: cells. As to the method: as §1
The test system of assay [4] is MCF-7 (DSMZ ACC 115) cells. In words: cells. As to the method:
as §1

In assay [5] the test system is KB 3.1 (DSMZ ACC 158) cells. Nature of the assay: Cell proliferation assay under folate free conditions. To be noted: RPMI-medium without folic acid + 10% dialyzed fetal calf serum; MTT assay after 1, 2 and 5 days (day of the value not given); read-out: IC50 [nM] KB 3.1 (Folate-Ratjadone Conjugates). On the procedure: KB 3.1 (DSMZ ACC 158) cells were cultivated at 37° C. and 10% C002 in RMPI-medium without folic acid (Gibco) with 10% fetal calf serum (Gibco). 120 μL of suspended cells (100.000/mL) were seeded in wells of 96-well plates and after 24 h at 37° C. and 10% CO2 the medium was removed, the cells were washed with PBS and RPMI-medium without folic acid (Gibco)+10% dialyzed fetal calf serum (Sigma) were added to the cells, before after additional 24 h at 37° C. and 10% C002 60 μL of serial dilutions of the test compound were given to cells. After 1, 2 and 5 days of incubation growth inhibition (IC50) was determined using an MTT assay.^[64]

[6] abbreviates: HeLa cells stably expressing translocation biosensor, 1h of incubation, read-out: IC50 [nM] CRM1 (nuclear export inhibition).

Read-outs that look alike come from different tables or passages of the source.

T1 sequence (O14980 whole entry): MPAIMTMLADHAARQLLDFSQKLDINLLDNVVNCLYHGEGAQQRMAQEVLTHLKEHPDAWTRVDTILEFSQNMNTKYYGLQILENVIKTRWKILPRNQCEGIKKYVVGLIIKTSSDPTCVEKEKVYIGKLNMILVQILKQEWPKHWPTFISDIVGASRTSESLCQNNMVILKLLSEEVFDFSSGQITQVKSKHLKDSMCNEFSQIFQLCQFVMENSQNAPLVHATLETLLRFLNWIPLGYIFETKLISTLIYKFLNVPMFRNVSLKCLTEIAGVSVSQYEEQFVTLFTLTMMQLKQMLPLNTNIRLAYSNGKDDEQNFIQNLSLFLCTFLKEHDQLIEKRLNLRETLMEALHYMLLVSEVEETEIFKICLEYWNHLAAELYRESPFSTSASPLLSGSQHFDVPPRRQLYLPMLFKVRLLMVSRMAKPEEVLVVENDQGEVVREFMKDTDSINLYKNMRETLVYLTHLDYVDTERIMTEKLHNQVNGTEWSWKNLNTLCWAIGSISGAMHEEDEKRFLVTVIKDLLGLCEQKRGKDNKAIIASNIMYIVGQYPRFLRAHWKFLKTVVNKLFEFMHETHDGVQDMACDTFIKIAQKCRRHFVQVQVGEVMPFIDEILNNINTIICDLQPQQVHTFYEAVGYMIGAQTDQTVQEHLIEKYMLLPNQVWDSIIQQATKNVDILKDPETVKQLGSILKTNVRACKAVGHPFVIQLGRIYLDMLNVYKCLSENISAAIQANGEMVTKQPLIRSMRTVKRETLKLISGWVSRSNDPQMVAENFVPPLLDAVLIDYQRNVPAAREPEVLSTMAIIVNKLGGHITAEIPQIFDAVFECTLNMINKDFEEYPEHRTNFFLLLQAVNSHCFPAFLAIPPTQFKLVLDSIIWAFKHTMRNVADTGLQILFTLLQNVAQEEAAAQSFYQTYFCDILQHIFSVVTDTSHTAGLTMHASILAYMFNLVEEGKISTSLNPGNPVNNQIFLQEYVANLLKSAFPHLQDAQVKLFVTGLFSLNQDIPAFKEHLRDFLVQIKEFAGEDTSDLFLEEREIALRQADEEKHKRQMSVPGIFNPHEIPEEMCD

The term IC50 denotes the concentration needed to halve the response being measured. Consider `C/C=C/[C@@H]1O[C@H]([C@@H](/C=C/C=C(\C)C[C@@H](C)/C=C(C)\C=C\[C@H]2CC=CC(=O)O2)NC(=O)OCc2ccc(NC(=O)[C@H](CCCNC(N)=O)NC(=O)[C@@H](NC(=O)OC[C@@H]3[C@@H]4CCc5nnn(CCC[C@@H](NC(=O)[C@H](Cc6ccc(O)cc6)NC(=O)[C@H](CO)NC(=O)[C@H](Cc6c[nH]c7ccccc67)NC(=O)[C@H](Cc6c[nH]cn6)NC(=O)[C@@H]6CCC(=O)N6)C(=O)N[C@@H](CC(C)C)C(=O)N[C@@H](CCCNC(=N)N)C(=O)N6CCC[C@H]6C(=O)NNC(N)=O)c5CC[C@@H]43)C(C)C)cc2)C[C@@H](O)[C@@H]1C`, for which the IC50 in assay [1] stood at 12.8 nM.

For the compound `C/C=C/[C@@H]1O[C@H]([C@@H](/C=C/C=C(\C)C[C@@H](C)/C=C(C)\C=C\[C@H]2CC=CC(=O)O2)NC(=O)OCc2ccc(NC(=O)[C@H](CCCNC(N)=O)NC(=O)[C@@H](NC(=O)OC[C@@H]3[C@@H]4CCc5nnn(CCC[C@@H](NC(=O)[C@H](Cc6ccc(O)cc6)NC(=O)[C@H](CO)NC(=O)[C@H](Cc6c[nH]c7ccccc67)NC(=O)[C@H](Cc6c[nH]cn6)NC(=O)[C@@H]6CCC(=O)N6)C(=O)N[C@@H](CC(C)C)C(=O)N[C@@H](CCCNC(=N)N)C(=O)N6CCC[C@H]6C(=O)NCC(N)=O)c5CC[C@@H]43)C(C)C)cc2)C[C@@H](O)[C@@H]1C`, in assay [1], the IC50 came out at 23 nM.

With `C/C=C/[C@@H]1O[C@H]([C@@H](/C=C/C=C(\C)C[C@@H](C)/C=C(C)\C=C\[C@H]2CC=CC(=O)O2)NC(=O)OCc2ccc(NC(=O)[C@H](CCCNC(N)=O)NC(=O)[C@@H](NC(=O)OCCc3cn(CCC[C@H](NC(=O)[C@H](Cc4ccc(O)cc4)NC(=O)[C@H](CO)NC(=O)[C@H](Cc4c[nH]c5ccccc45)NC(=O)[C@H](Cc4c[nH]cn4)NC(=O)[C@@H]4CCC(=O)N4)C(=O)N[C@@H](CC(C)C)C(=O)N[C@@H](CCCNC(=N)N)C(=O)N4CCC[C@H]4C(=O)NCC(N)=O)nn3)C(C)C)cc2)C[C@@H](O)[C@@H]1C`, in assay [1], the IC50 was 1200 nM.

Turning to `C/C=C/[C@@H]1O[C@H]([C@H](N)/C=C/C=C(\C)C[C@@H](C)/C=C(C)\C=C\[C@H]2CC=CC(=O)O2)C[C@@H](O)[C@@H]1C` [16R-Amino-Ratjadone 11, (R)-6-((1E,3Z,5R,7E,9E,11R)-11-amino-11-((2S,4R,5S,6S)-4-hydroxy-5-methyl-6-((E)-prop-1-en-1-yl)tetrahydro-2H-pyran-2-yl)-3,5,7-trimethylundeca-1,3,7,9-tetra-en-1-yl)-5,6-dihydro-2H-pyran-2-one], the IC50 in assay [2] (setting [6]) was 2.7 nM; in assay [3] (Homo sapiens, SK-OV-3, 120 h, read-out: IC50 [nM] SK-OV-3, growth inhibition, 5 days of incubation, MTT assay), 0.61 nM; in assay [3] (read-out: IC50 [nM] SK-OV-3, growth inhibition, 5 days of incubation, MTT assay), 0.81 nM; in assay [4] (Homo sapiens, MCF7, 120 h, read-out: IC50 [nM] MCF-7, growth inhibition, 5 days of incubation, MTT assay), 0.26 nM; in assay [4] (read-out: IC50 [nM] MCF-7, growth inhibition, 5 days of incubation, MTT assay), 0.36 nM.

For the compound `C/C=C/[C@@H]1O[C@H]([C@@H](N)/C=C/C=C(\C)C[C@@H](C)/C=C(C)\C=C\[C@H]2CC=CC(=O)O2)C[C@@H](O)[C@@H]1C` [16S-Amino-Ratjadone 12, (R)-6-((1E,3Z,5R,7E,9E,11 S)-11-amino-11-((2S,4R,5S,6S)-4-hydroxy-5-methyl-6-((E)-prop-1-en-1-yl)tetrahydro-2H-pyran-2-yl)-3,5,7-trimethylun-deca-1,3,7,9-tetraen-1-yl)-5,6-dihydro-2H-pyran-2-one], in assay [2] (setting [6]), the IC50 is 2.8 nM.

On to `C/C=C/[C@@H]1O[C@H](C(/C=C/C=C(\C)C[C@@H](C)/C=C\C=C(/C)[C@H]2CC=CC(=O)O2)NC(=O)OCc2ccc(NC(=O)[C@H](CCCNC(N)=O)NC(=O)[C@@H](NC(=O)OC[C@@H]3[C@@H]4CCc5nnn(-c6ccc(C(=O)NCCCC[C@H](NC(=O)[C@H](CC(=O)O)NC(=O)[C@H](CC(=O)O)NC(=O)[C@H](CCCCNC(=O)c7ccc(-n8nnc9c8CC[C@H]8[C@@H](CC9)[C@H]8COC(=O)N[C@H](C(=O)N[C@@H](CCCNC(N)=O)C(=O)Nc8ccc(COC(=O)NC(/C=C/C=C(\C)C[C@@H](C)/C=C\C=C(/C)[C@H]9CC=CC(=O)O9)[C@@H]9C[C@@H](O)[C@H](C)[C@H](/C=C/C)O9)cc8)C(C)C)cc7)NC(=O)[C@@H](CC(=O)O)NC(=O)[C@@H](CC(=O)O)NC(=O)CC[C@H](NC(=O)c7ccc(NCc8cnc9nc(N)nc(O)c9n8)cc7)C(=O)O)C(=O)O)cc6)c5CC[C@@H]43)C(C)C)cc2)C[C@@H](O)[C@@H]1C` (stereo partly drawn) [FA-4-(Val-Cit-PABA-16R-Aminoratjadone)2], for which, in assay [5], the IC50 amounted to 148 nM.

Turning to `C/C=C/[C@@H]1O[C@H]([C@@H](/C=C/C=C(\C)C[C@@H](C)/C=C(C)\C=C\[C@H]2CC=CC(=O)O2)NC(=O)OCCc2cn(CCC[C@H](NC(=O)[C@@H](CC(=O)O)NC(=O)[C@@H](CC(=O)O)NC(=O)[C@@H](CC(=O)O)NC(=O)[C@@H](CC(=O)O)NC(=O)[C@@H](CC(=O)O)NC(=O)CC[C@H](NC(=O)c3ccc(NCc4cnc5nc(N)nc(O)c5n4)cc3)C(=O)O)C(=O)O)nn2)C[C@@H](O)[C@@H]1C` [FA-5-16R-Aminoratjadone], the IC50 in assay [5] turned out to be 50.3 nM.

Consider `C/C=C/[C@@H]1O[C@H]([C@@H](/C=C/C=C(\C)C[C@@H](C)/C=C(C)\C=C\[C@H]2CC=CC(=O)O2)NC(=O)OCCc2cn(-c3ccc(C(=O)NCCCC[C@H](NC(=O)CC[C@H](NC(=O)CC[C@H](NC(=O)c4ccc(NCc5cnc6nc(N)nc(O)c6n5)cc4)C(=O)O)C(=O)O)C(=O)O)cc3)nn2)C[C@@H](O)[C@@H]1C` [FA-6-16R-Aminoratjadone, (3S,8S,13S)-1-(4-(((2-amino-4-hydroxypteridin-6-yl)methyl)amino)phenyl)-19-(4-(4-(2-((((1R,2E,4E,7R,8Z,10E)-1-((2S,4R,5S,6S)-4-hydroxy-5-methyl-6-((E)-prop-1-en-1-yl)tetrahydro-2H-pyran-2-yl)-5,7,9-trimethyl-1-((R)-6-oxo-3,6-dihydro-2H-pyran-2-yl)undeca-2,4,8,10-tetraen-1-yl)carbamoyl)oxy)ethyl)-1H-1,2,3-triazol-1-yl)phenyl)-1,6,11,19-tetraoxo-2,7,12,18-tetraazanonadecane-3,8,13-tricarboxylic acid], for which, in assay [5], the IC50 was determined as 150 nM.

`C/C=C/[C@@H]1O[C@H]([C@@H](/C=C/C=C(\C)C[C@@H](C)/C=C(C)\C=C\[C@H]2CC=CC(=O)O2)NC(=O)OCCc2cn(CCC[C@H](NC(=O)[C@H](Cc3ccc(O)cc3)NC(=O)[C@H](CO)NC(=O)[C@H](Cc3c[nH]c4ccccc34)NC(=O)[C@H](Cc3c[nH]cn3)NC(=O)[C@@H]3CCC(=O)N3)C(=O)N[C@@H](CC(C)C)C(=O)N[C@@H](CCCNC(=N)N)C(=O)N3CCC[C@H]3C(=O)NCC(N)=O)nn2)C[C@@H](O)[C@@H]1C` [L-Orn-LHRH-16R-Aminoratjadone]: the IC50 stood at 1060 nM in assay [2] and 1600 nM in assay [1].

In the case of `C/C=C/[C@@H]1O[C@H]([C@H](O)/C=C/C=C(\C)C[C@@H](C)/C=C(C)\C=C\[C@H]2CC=CC(=O)O2)C[C@@H](O)[C@@H]1C` [Ratjadone A 1, (R)-6-((1E,3Z,5R,7E,9E,11R)-11-hydroxy-11-((2S,4R,5S,6S)-4-hydroxy-5-methyl-6-((E)-prop-1-en-1-yl)tetrahydro-2H-pyran-2-yl)-3,5,7-trimethylundeca-1,3,7,9-tetraen-1-yl)-5,6-dihydro-2H-pyran-2-one, reference compound], in assay [2] (setting [6]), the IC50 came to 1.2 nM.

Values taken from patent US11236059B2, “Targeted cytotoxic ratjadone derivatives and conjugates thereof” (HELMHOLTZ-ZENTRUM FUER INFEKTIONSFORSCHUNG GMBH, priority 2017, dated 2022).
